How the values were obtained:
bacterial culture = assay: Minimum inhibitory concentration (MIC), serial 2-fold dilution in 96-well plate; type: cell-based; conditions: overnight incubation in TSB, inoculum 0.2 OD
Method: To evaluate minimum inhibitory concentrations (MICs), the concentration of the twenty four hour culture in log phase is adjusted by diluting in tryptic soy broth (TSB) so that an optical density of 0.2 at 610nm is obtained. The bacterial culture is then ready to be used for testing.
Three solutions are prepared: (1) 1% CPC solution in ethanol; (2) 1% solution of the Compound of Formula (II) in water; and (3) 0.5% of a Compound of Formula (II) +0.5% CPC. The solutions are diluted 1:9 in TSB. They are added to a 96-well plate and a serial dilution (2-fold) is made across the plate. The bacterial inoculum at 0.2 OD, 1000, is added to every well. The plate is incubated overnight and read on a plate reader the following day.

IL-1B = assay: Anti-inflammatory activity, cytokine generation in HKPG-stimulated U937 macrophages; type: cell-based, Human; conditions: 0.1 ppm; U937 macrophages stimulated with heat killed P. gingivalis
Excerpt: (§1) The anti-inflammatory activity of a compound of Formula (II) is studied against six human inflammatory cytokines, PGE2, IL-1B, IL-6, IL-8, TNF-a, and GM-CSF in separate sets of experiments; first against PGE2, then against the five other cytokines Human monocyte U937 cells are differentiated to macrophages and then generation of cytokines is induced by stimulating the cells using heat killed P. gingivalis (HKPG, 1×10^8 cells). Different types of inflammatory cytokines are generated by U973 cells and released into the supernatant.

IL-6 = assay: as above; type: cell-based, Human; conditions: 0.1 ppm; U937 macrophages stimulated with heat killed P. gingivalis
Excerpt: as §1

TNF-a = assay: as above; type: cell-based, Human; conditions: 0.1 ppm; U937 macrophages stimulated with heat killed P. gingivalis
Excerpt: as §1

CCCCCCCCNCCC[C@@H](C)[C@H]1CC[C@H]2C3[C@H](OCCCN)CC4C[C@H](OCCCN)CC[C@]4(C)[C@H]3C[C@H](OCCCN)[C@]12C (stereo partly shown) [Compound of Formula (II)]
MIC (bacterial culture): 0.49 µg/mL | reduction of IL-10 (so in the source) (IL-1B): 21% | reduction of IL-6 (IL-6): 60% | reduction of TNF-a (TNF-a): 80%

Reference: patent publication US9345655B2, “Oral care compositions” (BRIGHAM YOUNG UNIVERSITY, priority 2011, dated 2016)
